# Laboratory results from patent US8957049B2, “Inhibitors of fatty acid amide hydrolase” (Infinity Pharmaceuticals, Inc., priority 2008, dated 2015).
# Target: T1, human FAAH (Homo sapiens, UniProt O00519)
# T1 construct: host or cells: COS-7 cells, transient transfection (FuGENE 6); 13,000 g membrane fraction solubilised in 1% Triton X-100
# T1 sequence (O00519 1-579): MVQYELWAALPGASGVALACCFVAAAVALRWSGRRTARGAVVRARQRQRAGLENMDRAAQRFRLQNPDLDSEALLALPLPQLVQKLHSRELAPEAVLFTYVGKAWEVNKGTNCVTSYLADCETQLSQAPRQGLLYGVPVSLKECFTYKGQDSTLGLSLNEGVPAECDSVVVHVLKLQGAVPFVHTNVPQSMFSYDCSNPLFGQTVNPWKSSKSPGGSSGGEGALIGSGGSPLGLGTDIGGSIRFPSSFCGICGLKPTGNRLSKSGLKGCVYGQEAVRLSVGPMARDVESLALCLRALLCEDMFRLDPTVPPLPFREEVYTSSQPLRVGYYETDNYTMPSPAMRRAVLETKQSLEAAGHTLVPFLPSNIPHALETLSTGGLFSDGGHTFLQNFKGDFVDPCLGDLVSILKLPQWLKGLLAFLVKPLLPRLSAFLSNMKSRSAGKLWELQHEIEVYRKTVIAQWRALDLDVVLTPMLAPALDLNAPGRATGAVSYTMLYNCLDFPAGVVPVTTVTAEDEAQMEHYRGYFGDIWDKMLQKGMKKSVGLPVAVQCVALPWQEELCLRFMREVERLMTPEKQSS
# Experiment: Human FAAH biochemical inhibition assay (AMC arachidonoyl amide fluorescence)
# Details: Table A, read-out: Activity (Ki) of other boronic acids tested, Table A
# Method: Exemplary compounds are set forth in the Examples provided below. Compounds were assayed as inhibitors of human FAAH using the method described in detail in Example 286.
# The following assays may be used to determine the inhibition of FAAH by the compounds of the present invention: (1) a fluorescence-based assay for fatty acid amide hydrolase compatible with high-throughput screening as described in Manjunath et al., Analytical Biochemistry (2005) 343:143-151; and (2) a high-throughput screening for the discovery of inhibitors of fatty acid amide hydrolase using a microsome-based fluorescent assay. Wang et al., Biomolecular Screening (2006) 1-9.
# COS-7 cells were split the day before, 1:5 into 150 mm×25 mm cell culture dishes (Corning Inc., Cat. No. 430599). Transient transfection took place at 30-40% confluency according to FuGENE 6 Transfection Reagent (Roche, Cat. No. 11814 443 001).
# The FuGENE transfection 6 reagent (45 uL) was added to 1410 μL of media (DMEM, serum free without pen/strep) in a 15 mL conical tube and incubated at room temp for 5 minutes, followed by the addition of FAAH plasmid DNA (15 μg) (OriGene Cat. No. TC119221, Genbank Accession No. NM_001441.1, 0.67 ug/uL) and a further incubation of 15 minutes at room temperature. The resulting solution was added into one dish of 30-40% confluent COS-7 cells in a drop-wise manner. The COS-7 cell dish was subsequently incubated for 48 hours. The cells are then harvested.
# Media was aspirated from the dishes and the cells rinsed with 10 mL PBS. The PBS was removed and 3 mL of PBS added to the dish. The dish was scraped to resuspend the cells, and the subsequent cell suspension collected into a 15 mL conical tube. The cells were pelleted by centrifugation at 1200 rpm for 5 minutes in a bench top centrifuge. PBS was removed and the cell pellet snap frozen in liquid nitrogen and stored at −80° C.
# COS-7 Cells—FAAH Purification: • (1) Fractionation: Frozen cell pellets from transient transfections were thawed on ice and resuspended in 12.5 mM Hepes pH 8.0, 100 mM NaCl, 1 mM EDTA (10 mL/0.2 g cell pellet). The pellets were dounce homogenized and then sonicated to produce cell extract. The cell extract was subsequently centrifuged at 1000 g to remove cellular debris. The pellet was discarded and the supernatant centrifuged at 13,000 g for 20 minutes. The pellet contained membrane bound FAAH. The supernatant was discarded and the pellet resolubilized. • (2) Re-solubilization: The fraction of interest, (13,000 g, membrane fraction) was re-suspended in 2.3 mL re-suspension buffer (20 mM Hepes pH 7.8, 10% v/v Glycerol, 1 mM EDTA, 1% Triton X-100) and the sample incubated on ice for 1 hour and then centrifuged to remove any particulate matter. The supernatant containing solubilized human FAAH was aliquoted and snap frozen in liquid nitrogen and stored at −80° C. until use. • (3) Characterization: Protein Concentration determined by Bradford assay. • SDS gel and Western blot to confirm presence of FAAH • FAAH activity assay • Km determination—96-well assay • Linear dependence—96-well assay • Standard compound Ki determination—384-well assay
# Rat FAAH biochemical assays were carried out in a 96 well flat bottom black non-treated polystyrene plates (Corning Costar Catalogue #3915). FAAH reaction buffer: 50 mM Hepes (pH 7.5), 1 mM EDTA, 0.2% Triton X-100. FAAH substrate—AMC Arachidonoyl Amide (Cayman Chemicals Company, Catalog #10005098). The reaction was read in an Envision microtiter plate reader [Excitation filter 355 nm (40 nm bandpass); Emmision filter 460 nm (25 nm bandpass)]. The raw fluorescence was plotted on the y axis and the inhibitor concentration on the x axis to give a dose response inhibition curve. The data was fitted to a single site competitive inhibition equation, fixing the Km for the rat and human enzyme to 12 μM and 9 μM respectively. […]
row,Structure (SMILES),Ki
1,Cc1cc(B2OC(C)(C)C(C)(C)O2)cnc1N1CCN(C)CC1,> 1 µM
2,OB(O)c1ccc(OCCn2ccnc2)cc1,0.1 to 1 µM

# Same assay, conditions: class given in each Example, read-out: Activity (Ki, inhibition of human FAAH)
row,Structure (SMILES),Ki
1,NCC(=O)N/N=C/c1cc(OCc2ccccc2)ccc1B(O)O [Compound 118],> 1 µM
2,OB(O)c1ccc([C@H]2OC[C@@H](c3ccccc3)O2)cc1 [Compound 182],≤ 0.01 µM
3,O=C1CCCN1CCc1nnc(-c2ccccc2B(O)O)o1 [Compound 263],> 1 µM
4,C=CCCCc1nnc(-c2ccc(B(O)O)cc2)o1 [Compound 78],≤ 0.01 µM
5,OB(O)c1ccc2nc(Nc3ccccc3)ccc2c1 [Compound 206],≤ 0.01 µM
6,CN(CCc1ccc(B(O)O)cc1)C(=O)OC(C)(C)C [Compound 234],≤ 0.01 µM
7,Cc1cc(Oc2ccccc2)nc2ccc(B(O)O)cc12 [Compound 213],≤ 0.01 µM
8,CN(CCc1ccc(B(O)O)cc1)S(=O)(=O)c1ccccc1 [Compound 237],≤ 0.01 µM
9,OB(O)c1ccc2cn(CCc3ccccc3)nc2c1 [Compound 314],≤ 0.01 µM
10,CCCCCC1CC(c2ccc(B(O)O)cc2)=NO1 (centres unmarked) [Compound 161],≤ 0.01 µM
11,OB(O)c1ccccc1-c1nc2ncccc2o1 [Compound 259],> 1 µM
12,OB(O)c1ccc(-c2nnc(-c3ccccn3)o2)cc1 [Compound 65],0.01 to 0.1 µM
13,OB(O)c1ccc(C2CCN(Cc3ccccc3)CC2)cc1 [Compound 279],0.1 to 1 µM
14,OB(O)c1ccc(-n2cc(-c3ccccc3)nn2)cc1F [Compound 141],0.01 to 0.1 µM
15,CCCCCc1nnc(-c2cc(B(O)O)cs2)o1 [Compound 27],≤ 0.01 µM
16,COC(=O)C1CC(Cc2ccccc2)ON1Cc1ccc(B(O)O)c(F)c1 (centres unmarked) [Compound 148],0.01 to 0.1 µM
17,OB(O)c1ccc(-c2nnc(-c3ccccc3)o2)s1 [Compound 56],0.01 to 0.1 µM
18,O=C(CCCC1CCN(Cc2ccc(B(O)O)cc2)CC1)c1ncco1 [Compound 329],0.1 to 1 µM
19,OB(O)c1ccc(-c2nnc(CCc3ccccc3)o2)cc1 [Compound 57],≤ 0.01 µM
20,Cc1nnc(/C=C/c2ccccc2B(O)O)o1 [Compound 28],0.1 to 1 µM
21,Cc1nc(Cc2nnc(-c3ccc(B(O)O)cc3)o2)cs1 [Compound 23],0.01 to 0.1 µM
22,O=C1CC(c2nc3ccc(B(O)O)cc3o2)CN1Cc1ccccc1 (centres unmarked) [Compound 249],0.01 to 0.1 µM

row,Structure (SMILES),Ki
1,O=S(=O)(c1ccccc1)N1CCC(c2ccc(B(O)O)cc2)CC1 [Compound 236],0.01 to 0.1 µM
2,OB(O)c1ccc2nc(CCc3ccccc3)sc2c1 [Compound 278],≤ 0.01 µM
3,CCCCCN1C(=O)c2ccc(B(O)O)cc2C1=O [Compound 307],≤ 0.01 µM
4,OB1c2cscc2C=NN1Cc1ccccc1 [Compound 257],> 1 µM
5,CCCc1nnc(-c2cc(F)ccc2B(O)O)o1 [Compound 261],> 1 µM
6,CC(C)Cc1nnc(-c2ccccc2B(O)O)o1 [Compound 284],> 1 µM
7,CC(C)(C)OC(=O)NCC(=O)N/N=C/c1cc(OCc2ccccc2)ccc1B(O)O [Compound 117],0.01 to 0.1 µM
8,Cc1nc2cc(B(O)O)ccc2s1 [Compound 88],0.1 to 1 µM
9,COCc1nnc(-c2ccc(B(O)O)cc2)o1 [Compound 75],≤ 0.01 µM
10,OB(O)c1ccc(-c2nnc(-c3cccc4c3OCC4)o2)cc1 [Compound 46],≤ 0.01 µM
11,OB(O)c1ccc2nc(CCCC(F)(F)F)oc2c1 [Compound 246],≤ 0.01 µM
12,OB(O)c1ccc2nc(Oc3ccccc3O)ccc2c1 [Compound 199],≤ 0.01 µM
13,CN(Cc1ccccc1)c1ccc2cc(B(O)O)ccc2n1 [Compound 204],≤ 0.01 µM
14,OB(O)c1ccc2cc(Oc3cnccn3)ccc2c1 [Compound 186],≤ 0.01 µM
15,OB(O)c1ccc(-c2ncc(-c3ccccc3)o2)cc1F [Compound 1],0.01 to 0.1 µM
16,OB(O)c1ccc2cc(Oc3ccccc3)ccc2c1 [Compound 216],≤ 0.01 µM
17,OB(O)c1ccc(-c2ncc(-c3ccccc3)s2)cc1F [Compound 3],> 1 µM
18,CCCCOc1ccc(B(O)O)c(-c2nnc(C)o2)c1 [Compound 272],0.01 to 0.1 µM
19,OB1NN=Cc2cc(OCc3ccccc3)ccc21 [Compound 258],> 1 µM
20,CC/C=C/c1cc(OCCc2ccccc2)ccc1B(O)O [Compound 183],0.01 to 0.1 µM
21,OB(O)c1ccc(-c2nnc(CC3CCCC3)o2)cc1 [Compound 35],≤ 0.01 µM
22,CC(=O)N/N=C/c1cc(OCCc2ccccc2)ccc1B(O)O [Compound 120],≤ 0.01 µM

row,Structure (SMILES),Ki
1,OB(O)c1ccc(OCCc2ccccc2)cc1COCc1ccccc1 [Compound 97],> 1 µM
2,CC(C)(C)c1nnc(-c2ccc(B(O)O)cc2)o1 [Compound 77],≤ 0.01 µM
3,OB1ON=Cc2cc(OCc3ccccc3)ccc21 [Compound 105],0.01 to 0.1 µM
4,CC(C)(C)OC(=O)NCCc1nnc(-c2ccc(B(O)O)cc2)o1 [Compound 82],0.01 to 0.1 µM
5,OB(O)c1ccc2cc(Oc3ccccn3)ccc2c1 [Compound 185],≤ 0.01 µM
6,OB(O)c1ccc(OCCc2ccccc2)cc1-c1nnc(-c2ccco2)o1 [Compound 18],≤ 0.01 µM
7,OB(O)c1ccc(-c2cn(-c3ccccc3)nn2)cc1F [Compound 134],0.01 to 0.1 µM
8,CN(CCCc1ccc(B(O)O)cc1)C(=O)OC(C)(C)C [Compound 235],≤ 0.01 µM
9,OB(O)c1ccc(-c2cnn(-c3ccccc3)c2)cc1 [Compound 232],≤ 0.01 µM
10,CCCc1noc(-c2cc(OCCc3ccccc3)ccc2B(O)O)n1 [Compound 273],0.01 to 0.1 µM
11,OB(O)c1ccc(-c2nnc(-c3cccnc3)o2)cc1 [Compound 21],≤ 0.01 µM
12,OB(O)c1ccccc1-c1nnc(CCc2ccccc2)o1 [Compound 265],> 1 µM
13,CCCCOc1ccc2c(c1)C=NOB2O [Compound 277],0.1 to 1 µM
14,CC(C)(C)OC(=O)N1CCC(Cc2nc3ccc(B(O)O)cc3o2)CC1 [Compound 299],≤ 0.01 µM
15,OB(O)c1ccc(-c2nnc(Cc3ccsc3)o2)cc1 [Compound 59],≤ 0.01 µM
16,CCCc1nc(-c2ccc(B(O)O)cc2)no1 [Compound 24],≤ 0.01 µM
17,CCCc1nnc(-c2ccc(F)cc2B(O)O)o1 [Compound 22],> 1 µM
18,OB(O)c1ccc(-c2nnc(-c3ccccc3)o2)nc1 [Compound 12],0.01 to 0.1 µM
19,OB(O)c1ccc(-c2ncc(-c3ccccc3)o2)cc1 [Compound 2],0.01 to 0.1 µM
20,CN(CCc1ccc(B(O)O)c(F)c1)C(=O)OC(C)(C)C [Compound 311],≤ 0.01 µM
21,CN(CCCc1ccc(B(O)O)cc1)S(=O)(=O)c1ccccc1 [Compound 238],≤ 0.01 µM
22,CCCC1CC(c2ccccc2B(O)O)=NO1 (centres unmarked) [Compound 167],0.01 to 0.1 µM
